Assay results taken from patent US12410160B2 (Gilead Sciences, Inc., priority 2021, dated 2025).
Where two headings read alike, the source gives them in different places.

What was measured:
HepG2 cells = assay: F1P Cell-Based Assay (EC50), 13C6-fructose-1-phosphate in HepG2 cells (cell culture medium or 50% human plasma)
human KHK-C = human KHK-C (Homo sapiens (Human), UniProt P50053); assay: KHK Biochemical Assay (IC50), ADP-Glo, KHK-C; conditions: average of at least two separate assays
Method in brief: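 ADP-Glo luminescence measured ADP made over a 4 h room-temperature reaction of ATP plus fructose, started after 30 min compound–enzyme pre-incubation. Buffer: 50 mM Hepes pH 7.4, 140 mM KCl, 5 mM MgCl2, 0.01% Triton-X. Enzyme was His-tagged, BL21 (DE3)-expressed, Ni-NTA-purified; compounds in 1:3 DMSO dilution series.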

[1] = Homo sapiens, HepG2, HepG2 cells, 50% human plasma, read-out: F1P 50% HP EC50
[2] = Homo sapiens, HepG2, read-out: F1P 10% FBS EC50, HepG2 cells, cell culture medium (10% FBS)

Chain of human KHK-C (P50053 whole entry): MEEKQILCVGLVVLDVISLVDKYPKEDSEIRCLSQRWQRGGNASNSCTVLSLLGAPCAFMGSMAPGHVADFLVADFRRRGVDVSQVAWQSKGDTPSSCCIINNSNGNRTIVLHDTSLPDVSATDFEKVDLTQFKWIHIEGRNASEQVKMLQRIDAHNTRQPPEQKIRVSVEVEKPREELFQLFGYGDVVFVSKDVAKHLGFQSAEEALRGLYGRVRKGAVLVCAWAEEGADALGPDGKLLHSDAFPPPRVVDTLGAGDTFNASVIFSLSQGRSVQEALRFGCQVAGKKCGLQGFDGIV

SMILES | EC50 (HepG2 cells; [1]) | EC50 (HepG2 cells; [2]) | IC50 (human KHK-C) | EC50 (HepG2 cells; Homo sapiens, HepG2, read-out: F1P 10% FBS EC50) | EC50 (HepG2 cells; Homo sapiens, HepG2, read-out: F1P 50% HP EC50) | EC50 (HepG2 cells; HepG2 cells, 50% human plasma, read-out: F1P 50% HP EC50) | EC50 (HepG2 cells; read-out: F1P 10% FBS EC50, HepG2 cells, cell culture medium (10% FBS))
C[C@H]1[C@H](O)CN1c1nc(-c2cccc(N=S3(=O)CCNCC3)c2)c2c(n1)C(F)(F)CC2 [Example 672, (2S,3R)-1-[7,7-difluoro-4-[3-[(1-oxo-1,4-thiazinan-1-ylidene)amino]phenyl]-5,6-dihydroeyelopenta[d]pyrimidin-2-yl]-2-methyl-azetidin-3-ol] | 105 nM | 56.2 nM | 33.2 nM | – | – | – | –
C[C@H]1[C@H](F)CN1c1nc(-c2ccc3c(c2)S(=O)(=O)CC3NS(C)(=O)=O)c2c(n1)C(F)(F)CC2 (stereo partly drawn) [Example 674, N-[6-[7,7-difluoro-2-[(2S,3R)-3-fluoro-2-methyl-azetidin-1-yl]-5,6-dihydrocyclopenta[d]pyrimidin-4-yl]-1,1-dioxo-2,3-dihydrobenzothiophen-3-yl]methanesulfonamide] | 232 nM | 3 nM | 0.2 nM | – | – | – | –
CS(=N)(=O)c1cccc(-c2nc(N3CC[C@@H]3C#N)nc3c2CCC3(F)F)c1 (stereo partly drawn) [Example 709, (2R)-1-(7,7-difluoro-4-(3-(S-methylsulfonimidoyl)phenyl)-6,7-dihydro-5H-cyclopenta[d]pyrimidin-2-yl)azetidine-2-carbonitrile] | 101 nM | 75.2 nM | 41.7 nM | – | – | – | –
C[C@H]1[C@H](F)CN1c1nc(-c2cccc(S(C)(=N)=O)c2)c2c(n1)C(F)(F)CC2 (stereo partly drawn) [Example 710, (3-(7,7-difluoro-2-((2S,3R)-3-fluoro-2-methylazetidin-1-yl)-6,7-dihydro-5H-cyclopenta[d]pyrimidin-4-yl)phenyl)(imino)(methyl)-λ^6-sulfanone] | 42.6 nM | 12.9 nM | 7.2 nM | – | – | – | –
C[C@H]1[C@H](O)CN1c1nc(-c2ccc(F)c(S(C)(=N)=O)c2)c2c(n1)C(F)(F)CC2 (stereo partly drawn) [Example 723, (5-(7,7-difluoro-2-((2S,3R)-3-hydroxy-2-methylazetidin-1-yl)-6,7-dihydro-5H-cyclopenta[d]pyrimidin-4-yl)-2-fluorophenyl)(imino)(methyl)-λ^6-sulfanone] | 41.3 nM | 44.3 nM | 19 nM | – | – | – | –
C[C@H]1[C@H](O)CN1c1nc(-c2cc(F)cc(S(C)(=N)=O)c2)c2c(n1)C(F)(F)CC2 (stereo partly drawn) [Example 724] | – | – | 25.4 nM | 166 nM | 234 nM | – | –
C[C@H]1CCN1c1nc2c(c(-c3ccc4c(c3)S(=N)(=O)CCO4)n1)CCC2 (stereo partly drawn) [Example 726] | 306 nM | 62.1 nM | 16.7 nM | – | – | – | –
C[C@H]1CCN1c1nc(-c2cc3c(c(CNS(C)(=O)=O)c2)OCC3)c2c(n1)C(F)(F)CC2 [Example 762, N-[[5-[7,7-difluoro-2-[(2S)-2-methylazetidin-1-yl]-5,6-dihydrocyclopenta[d]pyrimidin-4-yl]-2,3-dihydrobenzofuran-7-yl]methyl]methanesulfonamide] | 159 nM | 11.4 nM | 2 nM | – | – | – | –
CCOc1ccc(-c2nc(N3C[C@@H](O)[C@@H]3C)nc3c2CCC3(F)F)cc1S(N)(=O)=O [Example 764, 5-[7,7-difluoro-2-[(2S,3R)-3-hydroxy-2-methyl-azetidin-1-yl]-5,6-dihydrocyclopenta[d]pyrimidin-4-yl]-2-ethoxy-benzenesulfonamide] | 22.1 nM | 8.9 nM | 5.5 nM | – | – | – | –
C[C@H]1CCN1c1nc(-c2ccc3c(c2)CNC3)c2c(n1)C(F)(F)CC2 [Example 765, 7,7-difluoro-4-isoindolin-5-yl-2-[(2S)-2-methylazetidin-1-yl]-5,6-dihydrocyclopenta[d]pyrimidine] | 53.2 nM | 15.5 nM | 7.7 nM | – | – | – | –
CC(=O)NCc1cc(-c2nc(N3C[C@@H](O)[C@@H]3C)nc3c2CCC3(F)F)cc2c1OCC2 [Example 766, N-[[5-[7,7-difluoro-2-[(2S,3R)-3-hydroxy-2-methyl-azetidin-1-yl]-5,6-dihydrocyclopenta[d]pyrimidin-4-yl]-2,3-dihydrobenzofuran-7-yl]methyl]acetamide] | – | – | 11.8 nM | – | – | 150 nM | 38.4 nM
